Experimental findings from ChEMBL document CHEMBL4184340, “Fragment-Based Discovery of a Potent, Orally Bioavailable Inhibitor That Modulates the Phosphorylation and Catalytic Activity of ERK1/2” (J Med Chem, 2018) are described below.

Structures are written as SMILES.

Data set [1] in a line: in vivo. The following applies: Balb/c, mouse, iv, 0.5 mg/kg.
Another data set can be described thus: in vitro. The following applies: human, Caco-2.
A short description of data set [2]: in vivo. To be noted: Balb/c, mouse, iv, 0.5 mg/kg. The source holds these as a separate data set.
Data set [3] in a line: in vivo. The following applies: Balb/c, mouse, po, 5 mg/kg.
Data set [4] in a line: in vivo. To be noted: Balb/c, mouse, po, 5 mg/kg. This is another data set of the same source.
The nature of data set [5]: in vivo. To be noted: Balb/c, mouse, po, 5 mg/kg. This is another data set of the same source.

On to `C[C@H](C(=O)N[C@H](CO)c1ccccc1)N1Cc2ccc(-c3nc(NC4CCOCC4)ncc3Cl)cc2C1=O`, for which the clearance (in general, the volume of plasma or blood freed of the substance per unit of time) at 24 h in “in vivo [1]” came to 23 mL/min/kg. The Papp (in general, the rate of passage across a membrane or cell layer, normalised by area and donor concentration) at 1 h, 10 µM in the data set “in vitro” was determined as 13 ×10⁻⁶ cm/s. Moreover, in the data set “in vivo [2]”, the Vd (in general, the apparent volume that relates the amount in the body to the concentration in plasma or blood) at 24 h stood at 1 L/kg. In addition, the half-life – broadly, how long it takes for the measured level to halve – at 24 h in “in vivo [3]” is 0.7 h. For the same compound, in the data set “in vivo [4]”, the bioavailability – broadly, the share of a dose that reaches the circulation, judged against a reference dose that is usually intravenous – at 24 h was 70%. For the same compound, the AUC (commonly the area under the concentration-time curve, a measure of exposure) at 24 h in “in vivo [5]” came to 2600 ng·h/mL.

In the case of `CN(C(=O)CN1Cc2ccc(-c3nc(NC4CCOCC4)ncc3Cl)cc2C1=O)C(C)(C)C`, the clearance at 24 h in “in vivo [1]” is 4.2 mL/min/kg. The Papp at 1 h, 10 µM in “in vitro” worked out at 22 ×10⁻⁶ cm/s. Moreover, the Vd at 24 h in the data set “in vivo [2]” came out at 0.1 L/kg. In addition, the half-life at 24 h in the data set “in vivo [3]” was 0.7 h. In the data set “in vivo [4]”, this compound came in with a bioavailability at 24 h of 30%. Moreover, in the data set “in vivo [5]”, the area under the curve (AUC) at 24 h came to 5900 ng·h/mL.

Take `O=C1c2cc(-c3nc(NC4CCOCC4)ncc3Cl)ccc2CN1CCN1CCOCC1`: the clearance at 24 h in “in vivo [1]” was found to be 15 mL/min/kg. In addition, the apparent permeability coefficient (Papp) at 1 h, 10 µM in “in vitro” worked out at 40 ×10⁻⁶ cm/s. In the data set “in vivo [2]”, this compound returned a Vd at 24 h of 0.2 L/kg. Further, in the data set “in vivo [3]”, the half-life at 24 h was 2 h. The compound also came in with a bioavailability at 24 h in “in vivo [4]” of 32%. Further, the exposure (AUC) at 24 h in the data set “in vivo [5]” came out at 1800 ng·h/mL.

In turn, `CC(C)(C)NC(=O)CN1Cc2ccc(-c3nc(NC4CCOCC4)ncc3Cl)cc2C1=O` yielded a clearance at 24 h in the data set “in vivo [1]” of 14 mL/min/kg. The compound further registered an apparent permeability (Papp) at 1 h, 10 µM in “in vitro” of 17 ×10⁻⁶ cm/s. The same compound had a distribution volume (Vd) at 24 h in the data set “in vivo [2]” of 0.2 L/kg. Besides, the half-life at 24 h in “in vivo [3]” is 1 h. This compound also displayed a bioavailability at 24 h in “in vivo [4]” of 8%. Moreover, in “in vivo [5]”, the AUC at 24 h was 530 ng·h/mL.

Turning to `O=C(CN1Cc2ccc(-c3nc(NC4CCOCC4)ncc3Cl)cc2C1=O)NC(CO)c1ccccc1` (single isomer, unassigned), in the data set “in vivo [1]”, the clearance at 24 h was 11 mL/min/kg. For the same compound, in “in vitro”, the Papp at 1 h, 10 µM came to 0.7 ×10⁻⁶ cm/s. The distribution volume (Vd) at 24 h in “in vivo [2]” was determined as 0.6 L/kg. Also, the half-life at 24 h in “in vivo [3]” is 3 h. In “in vivo [4]”, this compound registered a bioavailability at 24 h of 41%. For the same compound, the AUC at 24 h in the data set “in vivo [5]” worked out at 3000 ng·h/mL.

In the data set “in vivo [1]”, `Cc1cccc([C@@H](CO)NC(=O)[C@@H](C)N2Cc3ccc(-c4nc(NC5CCOCC5)ncc4Cl)cc3C2=O)c1` came in with a clearance at 24 h of 13 mL/min/kg. Also, the Papp at 1 h, 10 µM in the data set “in vitro” worked out at 6.6 ×10⁻⁶ cm/s. Moreover, in “in vivo [2]”, the distribution volume (Vd) at 24 h amounted to 0.6 L/kg. In the data set “in vivo [3]”, this compound had a half-life at 24 h of 0.8 h. The compound also returned a bioavailability at 24 h in “in vivo [4]” of 59%. In addition, in “in vivo [5]”, the AUC at 24 h came to 3700 ng·h/mL.

`O=C(CN1Cc2ccc(-c3nc(NC4CCOCC4)ncc3Cl)cc2C1=O)NCc1ccccc1` gave a clearance at 24 h in the data set “in vivo [1]” of 3.8 mL/min/kg. Further, in “in vivo [2]”, the Vd at 24 h worked out at 0.2 L/kg. Also, in “in vivo [3]”, the half-life at 24 h is 1 h. In addition, in “in vivo [4]”, the bioavailability at 24 h worked out at 32%. The same compound had an AUC at 24 h in “in vivo [5]” of 6900 ng·h/mL.

`COCCN1Cc2ccc(-c3nc(NC4CCOCC4)ncc3Cl)cc2C1=O` gave a clearance at 24 h in the data set “in vivo [1]” of 17 mL/min/kg. This compound also had an apparent permeability coefficient (Papp) at 1 h, 10 µM in “in vitro” of 19 ×10⁻⁶ cm/s. Also, the Vd at 24 h in “in vivo [2]” came to 0.05 L/kg. In the data set “in vivo [3]”, the half-life at 24 h was 1 h. This compound also returned a bioavailability at 24 h in the data set “in vivo [4]” of 1%. This compound also showed an AUC at 24 h in the data set “in vivo [5]” of 50 ng·h/mL.
